Laboratory results published in patent US20250289816A1, “SALTS AND PHARMACUTICAL COMPOSITIONS THEREOF FOR THE TREATMENT OF INFLAMMATORY DISORDERS” (Alfasigma S.p.A., priority 2014, published 2025).
≈ marks a conversion by molar mass, not a printed value.

How the values were obtained:
[1] = Thermodynamic aqueous solubility by HPLC; assay type: physicochemical; settings: salt obtained by Protocol 4
[2] = Complementary salt analysis (XRPD, stability evaluation); assay type: physicochemical; settings: salt obtained by Protocol 4
[3] = Solubility study in different solvents (UV-spectrometry); assay type: physicochemical; settings: at least 24 h
Experimental: The supersaturated solution is then filtered and the concentration of product in the filtrate is determined using UV-spectrometry.
In water, the influence of the pH is adjusted to pH 2, pH 7, and pH 9. HCl and NaOH are used to adjust the pH.

[4] = Dog bioavailability study; assay type: in vivo, beagle dogs; settings: for Cmax / Tmax / Exposure AUC: target dose 10 mg/kg
Experimental: The dogs are not fasted before dosing, and have free access to water. Every day of the treatment, a half food ration is provided after the T0 blood sampling, 8 to 17 min before treatment, and the second half ration is given just after dosing or 1 h after treatment for period 2. A 3 days washout period is ensured between treatments.
The capsule composition is described in Table XX below.
The capsules are administered orally with water (5-10 mL), to provide good oesophageal transit. Each animal is checked at least once daily.
Blood is collected from the jugular vein into lithium heparinised tubes at TO (before food administration) and then at 1 h, 2 h, 4 h, 6 h, 8 h, 10 h, and 24 h post treatment.
Plasma is then obtained from blood by centrifugation (2500 g for 10 min at 4° C.), and stored at −20° C. until analysis.
After vortex mixing and centrifugation at 4° C., the supernatants are diluted with a 0.5 volume of HPLC grade water in a midi-eppendorf 96-well plate. The plate is sealed and shaken to ensure sample homogeneity prior to analysis.
Pharmacokinetic analysis is performed using WinNonlin™ software version 5.3, using concentrations from individual animals. Non-compartmental analysis is applied to determine the PK parameters (Cmax, Tmax, AUC0-last, t1/2, etc. . . . )
Concentrations below the limit of detection are set to zero for descriptive statistics and PK parameter calculations.

[5] = Dissolution in solvents (salt Protocol 1); assay type: physicochemical; settings: DCM, up to 20 relative volumes, agitated at 50° C.; not in the other nine solvents
From the text: The solvent is selected from isopropanol, ethanol, methanol, isopropyl acetate, THF, TBME, acetone, methyl ethyl ketone, DCM, and MeCN.

[6] = GVS analysis; assay type: physicochemical
From the text: The evolution of the material is followed via XPRD at various time points.

[7] = single oral administration, 1 × 100 mg capsule
[8] = single oral administration, 4 × 25 mg capsules
[9] = oral capsules, on average at the 2 capsule strengths

## Cl.O=C(Nc1nc2cccc(-c3ccc(CN4CCS(=O)(=O)CC4)cc3)n2n1)C1CC1 [HCl salt]
[1]
  aqueous solubility: 1900 µg/mL
[2]
  hygroscopicity of the salt: non-hygroscopic
[2]; stability evaluation 1 week at 40° C./75% Relative humidity
  stability of the salt: stable

## O=C(Nc1nc2cccc(-c3ccc(CN4CCS(=O)(=O)CC4)cc3)n2n1)C1CC1 [Compound 1, cyclopropanecarboxylic acid {5-[4-(1,1-dioxo-thiomorpholin-4-ylmethyl)-phenyl]-[1,2,4]triazolo[1,5-a]pyridin-2-yl}-amide]
[3]; 0.005M HCl, 20° C.
  Solubility: 252 µg/mL (≈ 592 µM)
[3]; HP-β-CD 40% pH3, 20° C.
  Solubility: 550 µg/mL (≈ 1290 µM)
[4]; [7]
  Cmax: 797 ng/mL
  Tmax: 8.0 h
[4]; [8]
  Cmax: 894 ng/mL
  Exposure AUC: 10400 ng·h/mL
  Tmax: 6.0 h
[5]
  dissolution in solvent: almost full dissolution

## Cl.O.O.O.O=C(Nc1nc2cccc(-c3ccc(CN4CCS(=O)(=O)CC4)cc3)n2n1)C1CC1 [Compound 1·HCl·3H2O]
[6]; GVS, followed by XRPD
  change in form at elevated RH: No change in form
[6]; upon heating
  temperature of dehydration to Compound 1·HCl anhydrous: above 60 °C
[3]; 0.005M HCl, 20° C.
  Solubility: 3100 µg/mL
[3]; 0.01M HCl + 2.0% Tween 80, 20° C.
  Solubility: 2790 µg/mL
[3]; 0.01M HCl, 20° C.
  Solubility: 2340 µg/mL
[3]; Acetone, 20° C.
  Solubility: 415 µg/mL
[3]; Acetonitrile, 20° C.
  Solubility: 7360 µg/mL
[3]; Acetonitrile/water (1/1), 20° C.
  Solubility: 25600 µg/mL
[3]; Acetonitrile/water (4/1), 20° C.
  Solubility: 7810 µg/mL
[3]; Dichloromethane, 20° C.
  Solubility: 388 µg/mL
[3]; Ethanol, 20° C.
  Solubility: 764 µg/mL
[3]; HP-β-CD 40% pH2, 20° C.
  Solubility: 7880 µg/mL
[3]; HP-β-CD 40% pH3, 20° C.
  Solubility: 9330 µg/mL
[3]; HP-β-CD 40% pH4, 20° C.
  Solubility: 2790 µg/mL
[3]; Methanol, 20° C.
  Solubility: 743 µg/mL
[3]; PEG400, 20° C.
  Solubility: 36600 µg/mL
[3]; Propanol, 20° C.
  Solubility: 663 µg/mL
[3]; Propylene glycol, 20° C.
  Solubility: 11700 µg/mL
[3]; Tetrahydrofuran, 20° C.
  Solubility: 208 µg/mL
[3]; Water (purified), 20° C.
  Solubility: 3170 µg/mL
[3]; Water pH2, 20° C.
  Solubility: 8050 µg/mL
[3]; Water pH7, 20° C.
  Solubility: 2260 µg/mL
[3]; Water pH9, 20° C.
  Solubility: 2680 µg/mL
[3]; Water/ethanol 1/1, 20° C.
  Solubility: 8680 µg/mL
[3]; t-butyl methyl ether, 20° C.
  Solubility: 26.3 µg/mL
[4]; [9]
  in vivo exposure compared with Compound 1: improved exposure
  rate of absorption compared with Compound 1: more rapidly absorbed
[4]; [7]
  Cmax: 2630 ng/mL
  Exposure AUC: 21700 ng·h/mL
  Tmax: 2.0 h
[4]; [8]
  Cmax: 3050 ng/mL
  Exposure AUC: 33600 ng·h/mL
  Tmax: 2.0 h
[4]; single oral administration, one range across both forms and both capsule strengths
  T1/2: Range 4.43-8.96 h
